Laboratory results published in patent US11332485B2, “Penicillin-binding protein inhibitors” (priority 2017, dated 2022).
Like-named read-outs stand apart in the source and are kept apart here.

What was measured:
[1] = tested on: E. coli DH5α/pLBII-CTX-M15; assay: Broth microdilution MIC assay, engineered strain producing CTX-M15; format: cell-based, Escherichia coli; details: Escherichia coli, read-out: E. coli DH5α/pLBII-CTX-M15 Microbiological Activity (MIC)
Method in brief: (§1)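 CLSI broth microdilution in cation-supplemented Mueller-Hinton broth, 2-fold compound dilutions, 5×10^5 CFU/mL inoculum, 16-20 h at 37° C, MIC read visually as lowest concentration without growth. E. coli DH5α carries CTX-M15 on pLBII under Lac promoter, or empty pLBII as control.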

[2] = tested on: E. coli PBP1b; assay: Bocillin FL competition binding assay (SDS-PAGE gel, membrane PBPs); design: species or system Escherichia coli; details: 15 min. pre-incubation, membrane protein extracts, SDS-PAGE fluorescence scan
Method: (§2) To determine the ability of test compounds to bind Penicillin Binding Proteins (PBPs), a competition binding assay using Bocillin FL (fluorescent derivative of penicillin V) was adapted from the classical method used to assess PBP potency of beta-lactams.
Penicillin binding proteins were isolated from Escherichia coli K12 by growth of Escherichia coli K12 from a single colony in 4 L of Luria-Bertani (LB) broth at 35° C. and 250 rpm to an OD600 nm of 0.5. The cells were harvested by centrifugation at 7,000×g for 10 min. at 4° C. Cells were resuspended and washed in 50 mM potassium phosphate pH 7.5. […] The membrane proteins are washed twice with 10 mM sodium phosphate pH 7, resuspended in a volume of 5 mL, quantitated by BCA assay, adjusted to 10 μg/mL and frozen at −80° C. until use.
The adapted Bocillin FL competition binding assay described herein incorporates a 15 min. pre-incubation of test compound with isolated PBPs to attempt to balance the difference in mechanism of inhibition between beta-lactams (largely irreversible covalent bond to active site Serine) and the boron-containing PBP inhibitor test compounds (reversible covalent bond to active site Serine). […] The SDS-PAGE gel, post-electrophoresis, is then washed in water to remove excess SDS for 10 minutes at room temperature and placed on the scanning bed of a GE Healthcare/Amersham Biosciences Storm 860 fluorescence scanner. […]

[3] = tested on: E. coli DH5α/pLBII; assay: Broth microdilution MIC assay, empty vector control strain; format: cell-based; details: Escherichia coli, read-out: E. coli DH5α/pLBII Microbiological Activity (MIC)
Method in brief: as §1

[4] = biological target: T1, E. coli PBP3 (Escherichia coli, UniProt P0AD68); assay: Bocillin FL competition binding assay (SDS-PAGE gel, membrane PBPs); details: 15 min. pre-incubation, membrane protein extracts, SDS-PAGE fluorescence scan
T1 construct: 100 μg's of total membrane protein extracts containing PBPs; endogenous in cells; host or cells: Escherichia coli K12 membrane fraction
T1 sequence (P0AD68 1-577): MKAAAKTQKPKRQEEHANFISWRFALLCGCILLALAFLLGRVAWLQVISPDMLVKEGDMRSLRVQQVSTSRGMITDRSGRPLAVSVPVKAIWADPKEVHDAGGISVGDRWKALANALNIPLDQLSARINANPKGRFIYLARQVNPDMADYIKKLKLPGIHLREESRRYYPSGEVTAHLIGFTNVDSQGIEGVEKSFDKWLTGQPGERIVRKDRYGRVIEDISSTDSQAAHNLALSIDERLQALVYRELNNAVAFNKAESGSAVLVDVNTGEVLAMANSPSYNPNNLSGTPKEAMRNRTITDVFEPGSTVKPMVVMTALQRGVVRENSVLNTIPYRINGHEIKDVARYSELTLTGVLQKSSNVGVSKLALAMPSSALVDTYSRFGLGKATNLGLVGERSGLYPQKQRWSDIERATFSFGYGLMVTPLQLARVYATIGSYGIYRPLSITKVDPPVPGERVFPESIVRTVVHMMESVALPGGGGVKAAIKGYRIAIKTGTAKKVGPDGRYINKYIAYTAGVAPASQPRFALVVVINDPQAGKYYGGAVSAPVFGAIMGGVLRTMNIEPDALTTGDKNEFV
Method: as §2
(§3) Penicillin binding proteins were isolated from Escherichia coli K12 by growth of Escherichia coli K12 from a single colony in 4 L of Luria-Bertani (LB) broth at 35° C. and 250 rpm to an OD600 nm of 0.5. The cells were harvested by centrifugation at 7,000×g for 10 min. at 4° C. Cells were resuspended and washed in 50 mM potassium phosphate pH 7.5. The cells were re-suspended in sonication buffer [50 mM Tris-HCl pH 7.5, 1 mM MgCl2, 1 mM beta-mercaptoethanol, and 5 μg/mL DNAse I] and sonicated by 4 passes of 30 seconds at 45 W on ice. The sample was clarified by centrifugation at 3,000×g to remove cell debris and unbroken cells and supernatant containing the membrane proteins was retained. The membrane proteins including the PBPs were further purified from soluble constituents by an ultracentrifugation step at 100,000×g for 30 min. at 4° C. The membrane proteins are washed twice with 10 mM sodium phosphate pH 7, resuspended in a volume of 5 mL, quantitated by BCA assay, adjusted to […] and frozen at −80° C. until use.
(§4) The adapted Bocillin FL competition binding assay described herein incorporates a 15 min. pre-incubation of test compound with isolated PBPs to attempt to balance the difference in mechanism of inhibition between beta-lactams (largely irreversible covalent bond to active site Serine) and the boron-containing PBP inhibitor test compounds (reversible covalent bond to active site Serine). Briefly, 50 μL reactions consisted of 100 μg's of total membrane protein extracts containing PBPs incubated with a dilution series of test compound ranging from 0.005 μg/mL to 2,480 μg/mL in 10 mM sodium phosphate pH7 containing 350 mM NaCl. Thirty minute reactions at 35° C. were initiated by addition of […] Bocillin FL, quenched by addition of SDS-PAGE loading buffer containing sodium dodecyl sulfate (SDS) and heated for 15 minutes at 95° C. to denature proteins in preparation for SDS-polyacrylamide gel electrophoresis. The Bocillin FL labeled PBPs are then separated by SDS-PAGE in Novex NuPage 10% Bis-Tris pre-cast gels (Invitrogen). The SDS-PAGE gel, post-electrophoresis, is then washed in water to remove excess SDS for 10 minutes at room temperature and placed on the scanning bed of a GE Healthcare/Amersham Biosciences Storm 860 fluorescence scanner. […] Effective PBP inhibitors are detected by a reduction in Bocillin FL labeling of the particular PBP over the dose range of test compound in a dose-responsive manner. […]

[5] = biological target: T2, E. coli K12 PBP1a (Escherichia coli, UniProt P02918); assay: as above; details: 15 min. pre-incubation, membrane protein extracts, SDS-PAGE fluorescence scan
T2 construct: 100 μg's of total membrane protein extracts containing PBPs; endogenous in cells; host or cells: Escherichia coli K12 membrane fraction
T2 sequence (P02918 whole entry): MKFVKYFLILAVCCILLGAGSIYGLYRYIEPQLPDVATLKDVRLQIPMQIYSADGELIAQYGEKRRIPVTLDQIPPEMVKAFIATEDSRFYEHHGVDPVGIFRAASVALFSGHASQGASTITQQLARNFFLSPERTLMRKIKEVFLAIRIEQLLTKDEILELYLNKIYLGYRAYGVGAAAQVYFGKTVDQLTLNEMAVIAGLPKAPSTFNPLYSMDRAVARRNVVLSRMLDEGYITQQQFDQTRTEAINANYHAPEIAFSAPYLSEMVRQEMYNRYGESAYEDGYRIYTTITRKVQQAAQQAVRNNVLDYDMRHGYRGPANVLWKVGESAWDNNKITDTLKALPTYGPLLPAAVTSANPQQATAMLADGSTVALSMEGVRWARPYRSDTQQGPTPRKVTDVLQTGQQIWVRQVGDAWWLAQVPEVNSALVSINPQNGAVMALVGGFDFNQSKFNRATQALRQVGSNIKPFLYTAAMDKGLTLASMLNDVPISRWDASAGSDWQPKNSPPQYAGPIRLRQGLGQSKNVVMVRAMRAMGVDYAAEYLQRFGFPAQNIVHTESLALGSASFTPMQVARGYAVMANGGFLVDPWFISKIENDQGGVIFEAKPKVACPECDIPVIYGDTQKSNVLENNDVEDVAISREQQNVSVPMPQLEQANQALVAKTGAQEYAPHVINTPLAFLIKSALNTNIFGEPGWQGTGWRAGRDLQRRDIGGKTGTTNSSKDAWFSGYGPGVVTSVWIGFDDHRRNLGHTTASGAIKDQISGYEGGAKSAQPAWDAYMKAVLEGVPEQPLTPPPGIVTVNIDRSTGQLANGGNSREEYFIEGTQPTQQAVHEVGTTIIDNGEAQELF
Method: as §2, §3, §4

[6] = tested on: S. aureus ATCC 29213; assay: Broth microdilution MIC assay; format: cell-based; details: Staphylococcus aureus, ATCC29213; broth microdilution, 16-20 hours at 37° C.; read-out: S. aureus 29213 MIC
Method in brief: (§5)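 Visual no-growth endpoint defines the MIC. Inoculum of 5×10^5 CFU/mL in divalent-cation-supplemented Mueller-Hinton broth was exposed to 2-fold dilution series of compound, then incubated 16-20 hours at 37° C per CLSI.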

[7] = tested on: hyper-permeable E. coli 901C; assay: Broth microdilution MIC assay; format: cell-based; details: Escherichia coli, read-out: E. coli 901C MIC
Method in brief: as §5

[8] = biological target: T3, PBP3 from Escherichia coli (Escherichia coli, UniProt P0AD68); assay: Fluorescence polarization competition binding assay with Bocillin-FL
T3 construct: made in house
T3 sequence (P0AD68 1-577): as the sequence (P0AD68 1-577) above
Method in brief: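 Fluorescence polarization competition assay with Bocillin-FL at 0.1 μM final and purified E. coli PBP3 at 1.5 μM final in 50 mM Hepes pH 8.0, 300 mM NaCl, 5% glycerol. Inhibitor preincubated with PBP3 for 30 min before probe addition; FP then read continuously for 60 min. Potency reported in binned categories.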

[9] = biological target: T4, PBP1b from Escherichia coli (Escherichia coli, UniProt P02919); assay: Radioligand competition binding assay with 14C-labeled boronic acid probe (Example 96)
T4 construct: made in house
T4 sequence (P02919 whole entry): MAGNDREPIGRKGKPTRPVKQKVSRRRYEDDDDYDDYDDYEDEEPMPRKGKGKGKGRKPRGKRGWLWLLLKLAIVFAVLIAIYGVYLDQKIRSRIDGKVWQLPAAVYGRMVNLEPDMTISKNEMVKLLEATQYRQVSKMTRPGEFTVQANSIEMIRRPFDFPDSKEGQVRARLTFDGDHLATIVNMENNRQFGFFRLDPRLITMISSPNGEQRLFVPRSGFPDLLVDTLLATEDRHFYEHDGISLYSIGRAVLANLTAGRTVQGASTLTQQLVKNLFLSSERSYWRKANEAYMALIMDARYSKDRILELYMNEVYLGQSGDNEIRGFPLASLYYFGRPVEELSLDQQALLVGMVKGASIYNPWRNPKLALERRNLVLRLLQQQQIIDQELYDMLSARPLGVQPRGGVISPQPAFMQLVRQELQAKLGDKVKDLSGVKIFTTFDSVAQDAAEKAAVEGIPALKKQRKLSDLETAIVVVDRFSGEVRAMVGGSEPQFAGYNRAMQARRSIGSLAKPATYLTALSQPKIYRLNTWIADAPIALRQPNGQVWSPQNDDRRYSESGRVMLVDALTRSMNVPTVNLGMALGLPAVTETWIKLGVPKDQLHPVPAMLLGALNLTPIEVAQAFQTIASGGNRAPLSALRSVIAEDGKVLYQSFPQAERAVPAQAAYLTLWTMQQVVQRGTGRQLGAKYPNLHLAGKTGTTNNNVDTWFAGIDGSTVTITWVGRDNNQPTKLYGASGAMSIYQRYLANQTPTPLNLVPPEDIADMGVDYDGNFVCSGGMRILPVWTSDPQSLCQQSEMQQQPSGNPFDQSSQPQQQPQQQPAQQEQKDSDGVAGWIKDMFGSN
From the text: (§6) To determine the ability of boronic acid-based test PBP inhibitors to bind Penicillin Binding Proteins (PBPs), a radio-labelled boronic acid PBP inhibitor (Example 96) was used in competition binding assays to determine boronic acid PBP inhibitor binding to PBP1a or PBP1b from Escherichia coli. PBP1a and PBP1b were purified as described previously (Bertsche, U.; et al., J. Biol. Chem. 2005, 280 (45), 38096-38101; Born, P.; et al., J Biol. Chem. 2006. 281 (37), 26985-26993). To establish assay conditions for competition binding, an enzyme titration/saturation binding experiment was performed. Saturation binding was performed in a buffer comprised of 20 mM Tris (pH 7.5), 500 mM NaCl and 0.1% (v/v) TritonX-100, with PBP1a/PBP1b at a final concentration of 0.1 μM and 96 at final concentrations ranging from 0-100 μM. Mixtures were incubated for 60 minutes, then applied to Zeba Spin Desalting columns or plates (ThermoFisher Scientific) and centrifuged at 1000-1500×g for 2 minutes. The flow through, containing PBP bound with 96, was recovered and 100 μL mixed with 5 mL of UltimaGold liquid scintillation cocktail (Perkin Elmer), and the radioactivity counted using a Beckman Coulter LS 6500 Multipurpose scintillation counter. PBP binding of 96 approached saturation at 20 μM of ^14C-labeled probe. The competition binding assay was validated using the beta-lactam ampicillin, with 96 at a final concentration of 20 μM, PBP1a/PBP1b at a final concentration of 0.1 μM. PBP1a/PBP1b was incubated with ampicillin in a 96-well microplate for 60 minutes, then 96 was added and the mixtures incubated for an additional 60 minutes. The mixtures were then applied to Zeba Spin desalting plates and centrifuged at 1000×g for 2 minutes. The flow through was recovered and 100 μl mixed with 5 ml of UltimaGold liquid scintillation cocktail and the radioactivity counted. Ampicillin inhibited binding of 96 with an EC50 (the concentration of inhibitor required to reduce binding of 96 by 50%) of less than 0.5 μM. Binding assays with boronic acid PBP inhibitors were performed in an identical fashion. The potency of boronic acid PBP inhibitors was reported as the EC50 value.
(§7) Representative results are shown in Table 5, where A represents a potency of >100 μM, B represents a potency between 10 μM and 100 μM inclusive, and C represents a potency of <10 μM. NT=Not Tested.

[10] = biological target: T5, PBP1a from Escherichia coli (Escherichia coli, UniProt P02918); assay: as above
T5 construct: made in house
T5 sequence (P02918 whole entry): as the sequence (P02918 whole entry) above
From the text: as §6, §7

[11] = biological target: T3, PBP3 from Escherichia coli; assay: Competition binding assay using Bodipy-FL boronic acid probe (Example 95); details: PBP3 3 μM, read-out: E. coli K12 PBP3 Potency
Method: PBP3 from Escherichia coli was cloned and purified as described previously (King, D. T, et al., ACS Infectious Diseases 2015, 1, 175-184). To establish assay conditions for competition binding, an enzyme titration/saturation binding experiment was performed. […] FP was measured immediately upon addition of PBP3 (Ex, Em), using a Cytation3 (BioTek) microplate reader and measured continuously for 60 minutes. […] The competition binding assay was validated using the beta-lactam ampicillin, with Bocillin-FL at a final concentration of 0.1 μM, PBP3 at a final concentration of 1.5 μM and concentrations of ampicillin from 0-1000 μM. […] Binding assays for boronic acid PBP inhibitors were performed in an identical fashion. Representative results are shown in Table 3, where A represents a potency of >500 μM, B represents a potency between 30 μM and 500 μM inclusive, and C represents a potency of <30 μM. NT=Not Tested.
The method described in Example II was adapted to use a Bodipy-labeled boronic acid PBP inhibitor (Example 13 or Example 95) to assess PBP3 potency of boronic acid PBP inhibitors. The method is identical to that described in Example II for the Bocillin-FL competition binding assay, with the following exceptions: PBP3 from Escherichia coli is used at a final concentration of 3 μM. […]

[12] = 14C-labeled probe 96 at 20 μM, PBP 0.1 μM, read-out: E. coli K12 PBP1b EC50
[13] = 14C-labeled probe 96 at 20 μM, PBP 0.1 μM, read-out: E. coli K12 PBP1a EC50
[14] = PBP1a/PBP1b 0.1 μM, 96 at 20 μM, assay validation, read-out: EC50 (concentration of inhibitor required to reduce binding of 96 by 50%)

| SMILES | MIC [1] [µg/mL] | E. coli PBP1b Potency [2] | MIC [3] [µg/mL] | E. coli PBP3 Potency [4] | E. coliK12 PBP1a Potency [5] | MIC [6] [µg/mL] | MIC [7] [µg/mL] | EC50 [8] [µM] | EC50 [9, 12] [µM] | EC50 [10, 13] [µM] | EC50 [11] [µM] | EC50 [9, 14] [µM] | EC50 [10, 14] [µM] |
| --- | --- | --- | --- | --- | --- | --- | --- | --- | --- | --- | --- | --- | --- |
| N[C@H](C(=O)N[C@H]1Cc2cccc(C(=O)O)c2OB1O)c1ccccc1 [Example 3, (R)-3-((S)-2-amino-2-phenylacetamido)-2-hydroxy-3,4-dihydro-2H-benzo[e][1,2]oxaborinine-8-carboxylic acid] | 128 to 256 | A (A represents a potency of >1000 μg/mL) | 128 to 256 | A (A represents a potency of >1000 μg/mL) | B (B represents a potency between 64 and 1000 μg/mL inclusive) | > 128 | 64 to 128 |  |  |  |  |  |  |
| Nc1nc(C(NS(N)(=O)=O)C(=O)N[C@H]2Cc3cccc(C(=O)O)c3OB2O)cs1 (stereo partly drawn) [Example 26, (3R)-3-(2-(2-aminothiazol-4-yl)-2-(sulfamoylamino)acetamido)-2-hydroxy-3,4-dihydro-2H-benzo[e][1,2]oxaborinine-8-carboxylic acid] | 32 to 64 |  | 32 to 64 |  |  | > 128 | < 64 | 30 to 500 | 10 to 100 | < 10 |  |  |  |
| CCN1CCN(C(=O)N[C@H](C)C(=O)N[C@H]2Cc3cccc(C(=O)O)c3OB2O)C(=O)C1=O [Example 34, (R)-3-((R)-2-(4-Ethyl-2,3-dioxopiperazine-1-carboxamido)propanamido)-2-hydroxy-3,4-dihydro-2H-benzo[e][1,2]oxaborinine-8-carboxylic acid] | 128 to 256 |  | 128 to 256 |  |  | > 128 | < 64 | 30 to 500 | < 10 | 10 to 100 |  |  |  |
| CC1(C)S[C@@H]2[C@H](NC(=O)[C@H](N)c3ccccc3)C(=O)N2[C@H]1C(=O)O [ampicillin, reference compound] |  |  |  |  |  |  |  | 1.4 | < 10 | < 10 | < 10 | < 0.5 | < 0.5 |
